# Reference: patent US20240384268A1, “Oligonucleotides” (Hudson Institute of Medical Research, priority 2021, published 2024)
# pIC50: −log10 of the molar value. In the oligonucleotide strings, read from the 5' end, every base follows the letter of its sugar. An asterisk marks phosphorothioate; unmarked linkages are phosphodiester. Other units and linkages are bracketed, terminal groups are in braces. A string of capitals states the bases alone. d = 2'-deoxy (DNA); m = 2'-O-methyl
# Target: T1, TLR3 (Homo sapiens, UniProt O15455)
# T1 sequence (O15455 24-904): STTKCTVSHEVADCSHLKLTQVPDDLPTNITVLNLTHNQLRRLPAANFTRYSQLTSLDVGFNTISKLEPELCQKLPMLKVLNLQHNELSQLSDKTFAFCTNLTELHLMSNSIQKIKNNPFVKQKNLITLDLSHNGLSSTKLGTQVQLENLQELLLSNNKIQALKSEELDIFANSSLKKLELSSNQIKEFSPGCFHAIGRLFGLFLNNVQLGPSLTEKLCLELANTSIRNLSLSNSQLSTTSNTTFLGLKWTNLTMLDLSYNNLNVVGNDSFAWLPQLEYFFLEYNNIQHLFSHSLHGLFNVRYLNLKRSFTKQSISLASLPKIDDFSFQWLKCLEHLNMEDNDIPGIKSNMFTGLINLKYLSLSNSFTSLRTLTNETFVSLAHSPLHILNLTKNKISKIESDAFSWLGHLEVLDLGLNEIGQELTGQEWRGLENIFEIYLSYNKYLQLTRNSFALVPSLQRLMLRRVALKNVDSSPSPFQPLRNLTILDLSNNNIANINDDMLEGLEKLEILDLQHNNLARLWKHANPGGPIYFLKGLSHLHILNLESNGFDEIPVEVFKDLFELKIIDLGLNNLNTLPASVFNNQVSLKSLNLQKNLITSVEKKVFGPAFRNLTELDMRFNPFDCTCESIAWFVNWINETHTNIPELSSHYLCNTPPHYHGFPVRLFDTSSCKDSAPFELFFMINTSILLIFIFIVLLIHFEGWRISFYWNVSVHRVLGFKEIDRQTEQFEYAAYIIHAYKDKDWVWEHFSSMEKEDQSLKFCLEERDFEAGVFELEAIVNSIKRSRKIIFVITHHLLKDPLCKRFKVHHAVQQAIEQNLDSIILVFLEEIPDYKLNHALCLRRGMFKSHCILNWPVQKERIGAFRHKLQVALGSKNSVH
# Test: HEK-TLR3 NF-κB-luciferase reporter, poly(I:C) stimulation
# Assay type: cell-based
# Set-up: host or cells: HEK-Blue hTLR3 (HEK293)
# Conditions: for pIC50: 30-50 min before 0.5 μg/ml pIC overnight, read-out: IC50 (polyI:C sensing by TLR3)
# [1] = 3mer 2'OMe ASO at 2 uM, value relative to Ligand only = 1.000, NT = 0.000
# [2] = 3-mers DNA PS 45 min, then 500 ng/ml polyI:C overnight, NF-κB-luciferase normalised to polyI:C only (Ligand 1.000, NT 0.000)
substance,measurement,setting,value
AAU (antisense mA*mA*mU),TLR3 2uM,[1],0.888
ACU (antisense mA*mC*mU),TLR3 2uM,[1],1.062
AGU (antisense mA*mG*mU),TLR3 2uM,[1],0.829
AUA (antisense mA*mU*mA),TLR3 2uM,[1],0.570
AUG (mA*mU*mG),TLR3 2uM,[1],0.859
AUU (mA*mU*mU),TLR3 2uM,[1],0.809
CAU (mC*mA*mU),TLR3 2uM,[1],0.866
CCU (mC*mC*mU),TLR3 2uM,[1],0.870
CGU (mC*mG*mU),TLR3 2uM,[1],0.833
CUA (mC*mU*mA),TLR3 2uM,[1],0.851
CUC (mC*mU*mC),TLR3 2uM,[1],0.874
CUG (mC*mU*mG),TLR3 2uM,[1],0.870
GCU (mG*mC*mU),TLR3 2uM,[1],0.808
GGU (mG*mG*mU),TLR3 2uM,[1],0.829
"T*T*A* G*G*G* T*T*A* G*G*G* T*T*A* G*G*G* T*T*A* G*G*G [A151, reference compound]",inhibition of polyI:C sensing by TLR3 at 500 nM (in words),"500 nM ASOs/ODNs, poly(I:C) 1 μg/ml",only partially reduced polyL:C-dependent TLR3 activation
same,pIC50,,< 6.12
UAA (mU*mA*mA),TLR3 2uM,[1],0.790
UAC (mU*mA*mC),TLR3 2uM,[1],0.813
UAG (mU*mA*mG),TLR3 2uM,[1],0.940
UAU (mU*mA*mU),TLR3 2uM,[1],0.915
UCC (mU*mC*mC),TLR3 2uM,[1],0.761
UCU (mU*mC*mU),TLR3 2uM,[1],0.804
UGC (mU*mG*mC),TLR3 2uM,[1],0.903
UGU (mU*mG*mU),TLR3 2uM,[1],0.967
UUA (mU*mU*mA),TLR3 2uM,[1],1.081
UUC (mU*mU*mC),TLR3 2uM,[1],1.023
"UUG (listed as RNA, chemistry not fully specified)",TLR3 2uM,[1],1.030
UUU (mU*mU*mU),TLR3 2uM,[1],0.970
"dA*dA*dA (DNA AAA; listed as DNA, chemistry not fully specified)",TLR3 2uM,[2],1.065
same,TLR3 2uM,[1],1.026
"dA*dA*dC (DNA AAC; listed as DNA, chemistry not fully specified)",TLR3 2uM,[2],0.861
same,TLR3 2uM,[1],0.901
"dA*dA*dG (DNA AAG; listed as DNA, chemistry not fully specified)",TLR3 2uM,[2],0.825
same,TLR3 2uM,[1],0.616
"dA*dC*dA (DNA ACA; listed as RNA, chemistry not fully specified)",TLR3 2uM,[2],0.832
same,TLR3 2uM,[1],1.053
"dA*dG*dA (DNA AGA; listed as DNA, chemistry not fully specified)",TLR3 2uM,[2],0.849
same,TLR3 2uM,[1],0.829
"dA*dG*dC (DNA AGC; listed as DNA, chemistry not fully specified)",TLR3 2uM,[2],0.854
same,TLR3 2uM,[1],1.019
"dC*dA*dA (CAA; listed as DNA, chemistry not fully specified)",TLR3 2uM,[2],0.909
same,TLR3 2uM,[1],0.771
"dC*dA*dC (CAC; listed as RNA, chemistry not fully specified)",TLR3 2uM,[2],0.796
same,TLR3 2uM,[1],0.841
"dC*dC*dA (CCA; listed as DNA, chemistry not fully specified)",TLR3 2uM,[2],0.763
same,TLR3 2uM,[1],0.917
"dC*dC*dC (CCC; listed as DNA, chemistry not fully specified)",TLR3 2uM,[2],0.811
same,TLR3 2uM,[1],0.933
"dC*dC*dG (CCG; listed as DNA, chemistry not fully specified)",TLR3 2uM,[2],0.867
same,TLR3 2uM,[1],0.770
"dC*dG*dA (CGA; listed as DNA, chemistry not fully specified)",TLR3 2uM,[2],0.823
same,TLR3 2uM,[1],0.780
dG*dC*dC [GCC],TLR3 2uM,[2],0.895
same,TLR3 2uM,[1],0.884
dG*dC*dG [GCG],TLR3 2uM,[2],0.867
same,TLR3 2uM,[1],0.830
"mAmUmC (mA*mU*mC) [AUC, 3-mer 2′OMe PS oligo]",TLR3 2uM,[1],0.768
mCmUmU (antisense mC*mU*mU) [660-3],TLR3 2uM,[1],0.846
mG*mC*mG*mG*mU*A*T*C*C*A*T*G*T*C*C*mC*mA*mG*mG*mC (mG*mC*mG*mG*mU*dA*dT*dC*dC*dA*dT*dG*dT*dC*dC*mC*mA*mG*mG*mC; antisense) [C2-Mut1],pIC50,,7.21
"mGmAmU (mG*mA*mU) [GAU, 3-mer 2′OMe PS oligo]",TLR3 2uM,[1],0.771
"mGmUmA (GUA; all 2'-O-methyl, backbone not given here; further chemistry not fully specified) [shortMut1-3b]",TLR3 2uM,[1],0.839
"mGmUmC (mG*mU*mC) [GUC, 3-mer 2′OMe PS oligo]",TLR3 2uM,[1],0.752
"mGmUmG (mG*mU*mG) [GUG, 3-mer 2′OMe PS oligo]",TLR3 2uM,[1],0.786
"mGmUmU (mG*mU*mU) [GUU, 3-mer 2′OMe PS oligo]",TLR3 2uM,[1],0.825
"mUmCmA (mU*mC*mA) [UCA, 3-mer 2′OMe PS oligo]",TLR3 2uM,[1],0.765
mUmCmG (antisense mU*mC*mG) [660-3b],TLR3 2uM,[1],0.850
"mUmGmA (mU*mG*mA) [UGA, 3-mer 2′OMe PS oligo]",TLR3 2uM,[1],0.806
"mUmGmG (mU*mG*mG) [UGG, 3-mer 2′OMe PS oligo]",TLR3 2uM,[1],0.764
